Test: gradient 5% acetonitrile 3 min, to 50% in 2 min, to 85% in 15 min, held 3 min, 100 µL/min
Settings: column: Zorbax Extend-C18 2.1 x 50 mm; eluents: water / acetonitrile, 0.1% formic acid
Summary of the method: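 Pure standards were run in mixtures of ~100 molecules by HPLC coupled to a quadrupole time-of-flight mass spectrometer. The column was a Zorbax Extend-C18 (2.1 × 50 mm, 1.8 μm) at 100 μL/min, with water and acetonitrile each containing 0.1% formic acid, in positive and negative ionization mode. Dead and dwell volumes were 40 μL and 900 μL. Retention time was taken from computationally picked adduct peaks, each manually inspected, with data collected over 3 months.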

Cc1ccc(NS(=O)(=O)c2cc3c(s2)CCN(C(=O)C2CC2)C3)cc1F
RP-LC retention time: 880 s

CCOc1ccc2ncc(S(=O)(=O)c3ccccc3)c(N3CCN(C)CC3)c2c1
RP-LC retention time: 787 s

CC(C)c1noc(-c2ccc(-n3cnc(C(=O)N4CCSCC4)c3)nc2)n1
RP-LC retention time: 863 s

O=C(Cc1cccs1)N1CCc2nn(CC3CC3)c(=O)n2CC1
RP-LC retention time: 676 s

COc1cc(=O)n2c(c1C(=O)Nc1cccc(SC)c1)CCCC2
RP-LC retention time: 734 s

CCN(Cc1ccc(F)cc1)Cc1cc(=O)n2cc(Cl)ccc2n1
RP-LC retention time: 578 s

Cc1ccc(NC(=O)Cc2ccc(S(C)(=O)=O)cc2)c(C(=O)c2ccccc2)c1
RP-LC retention time: 814 s

Cc1sc2ncnc(N3CCCCC3)c2c1C(=O)NCc1cc(F)ccc1F
RP-LC retention time: 1020 s

COc1cccc(NC(=O)Cn2nc3cc(C)nc(N4CCCC4)n3c2=O)c1
RP-LC retention time: 760 s

COCCN1C(=O)[C@H]2CN(Cc3cc(OC)ccc3OC)C[C@H]2C1=O
RP-LC retention time: 595 s

COc1cccc(C2Cn3nnc(-c4nc(-c5ccccc5Br)no4)c3CO2)c1 (configuration not stated)
RP-LC retention time: 1170 s

Cc1ccc(Cl)cc1NC(=O)Cn1ncc2c(N3CCN(c4ccccn4)CC3)ncnc21
RP-LC retention time: 630 s

O=C(Nc1nnc(C2CC(=O)N(c3ccc(Cl)cc3)C2)o1)c1ccccc1 (configuration not stated)
RP-LC retention time: 752 s

CC(C)(C)NC(=O)NCC(c1ccsc1)N1CCc2ccccc2C1 (configuration not stated)
RP-LC retention time: 593 s

Cc1cc(NC(=O)Cn2nc(N3CCOCC3)c3ccccc3c2=O)ccc1Br
RP-LC retention time: 884 s

COC(=O)c1ccc2c(=O)n(Cc3ccc(F)cc3)c(N3CCN(c4ccccn4)CC3)nc2c1
RP-LC retention time: 772 s

CN(C)C1(CC2CC2)CCN(C(=O)c2ccoc2)CC1
RP-LC retention time: 556 s

O=C(NC1CC1)[C@@H]1C[C@H](Oc2ccccc2)CN1C(=O)c1ccc2ncccc2c1
RP-LC retention time: 649 s

CCC(=O)Nc1ccc2c(c1)CN(C(=O)c1ccc(C)cc1)C(C(=O)N1CCCC1)C2 (configuration not stated)
RP-LC retention time: 738 s

Cc1ccc(CN2CCN(C3CCN(S(=O)(=O)c4cc(F)ccc4C)CC3)C(=O)C2=O)cc1
RP-LC retention time: 920 s

O=c1c2cc(-c3ccc(Cl)cc3)nn2ccn1Cc1nc(-c2cccc(F)c2)no1
RP-LC retention time: 1190 s

COc1ccc(-c2noc(Cn3ccn(-c4c(C)cccc4C)c(=O)c3=O)n2)cc1
RP-LC retention time: 870 s

CCn1c(=O)c(-c2noc(C(=O)N3CCN(c4ccccn4)CC3)n2)nn(-c2ccccc2)c1=O
RP-LC retention time: 691 s

COc1cccc(N2N=NC3C(=O)N(c4ccc(OC)c(OC)c4)C(=O)C32)c1 (configuration not stated)
RP-LC retention time: 852 s

COc1ccc(NC(=O)Cn2nc3cc(-c4ccccc4)nc(C)n3c2=O)cc1OC
RP-LC retention time: 830 s

O=S(=O)(Nc1cccc(F)c1)c1ccc(-c2nnc(C3CCC3)o2)o1
RP-LC retention time: 856 s

O=C(CN1C(=O)COc2ccc(C(=O)N3CCCC3)cc21)Nc1ccccc1F
RP-LC retention time: 694 s

O=c1n(CC2CC2)nc2n1CCN(Cc1cccc(O)c1)C2
RP-LC retention time: 610 s

Cc1cc(-c2nnc(NC(=O)c3cnn(-c4ccccc4)c3C)o2)c(C)o1
RP-LC retention time: 798 s

CCCCC(=O)Nc1cc(C(=O)O)ccc1N(C)CC1COCCO1 (configuration not stated)
RP-LC retention time: 756 s

CCC(=O)N1CCc2cc(N3CC(C(=O)Nc4cc(C)ccc4OC)CC3=O)ccc21 (configuration not stated)
RP-LC retention time: 794 s

Cc1noc([C@@H]2CC(F)(F)CN2S(=O)(=O)c2ccccc2)n1
RP-LC retention time: 858 s

CN1CCN(c2cc(C(=O)O)c3cc(NS(=O)(=O)c4ccc(Cl)c(Cl)c4)ccc3n2)CC1
RP-LC retention time: 644 s

Cc1ccc2ncn(C3CCN(S(=O)(=O)c4cc(F)cc(F)c4)CC3)c(=O)c2c1
RP-LC retention time: 932 s

O=C(c1cccs1)N1CCc2c([nH]c3ccccc23)C1c1ccc(Cl)cc1 (configuration not stated)
RP-LC retention time: 1220 s

Cn1nc(CN2CCCC2)c2c1CCN(S(=O)(=O)c1ccccc1C(F)(F)F)C2
RP-LC retention time: 655 s

O=C(Nc1cccc(Br)c1)N1CCC(n2cnc3cccnc32)CC1
RP-LC retention time: 660 s

Cc1sc(NC(=O)c2ccccc2)c(C(Nc2ccccn2)c2cccs2)c1C (configuration not stated)
RP-LC retention time: 746 s

COCCCNC(=O)C1(C)Cn2nc(-c3ccccc3)cc2C(=O)N1Cc1cc(OC)ccc1OC (configuration not stated)
RP-LC retention time: 903 s

CC(C)NC(=O)C1CCCN(C(=O)Nc2ccc(NC(=O)Nc3ccccc3)cc2)C1 (configuration not stated)
RP-LC retention time: 720 s

CCC(=O)N1c2ccc(S(=O)(=O)CCC(=O)N3CCCc4ccccc43)cc2CC1C (configuration not stated)
RP-LC retention time: 881 s

CCc1cccc(NC(=O)Cn2nc(N3CCCC3)c3ccccc3c2=O)c1
RP-LC retention time: 1000 s

CN(C)c1cccc(/C=C(\C#N)c2ccccc2)c1
RP-LC retention time: 1100 s

O=C(CSc1ccc(F)cc1)NCC(O)(c1ccccc1)C(F)(F)F (configuration not stated)
RP-LC retention time: 887 s

O=C(Nc1ccc(F)cc1)N1CCC(N2CC(F)(F)C[C@H]2COCC2CC2)CC1
RP-LC retention time: 699 s

CCOC(=O)c1[nH]c(C)c(CN(Cc2ccccc2)C(=O)c2ccco2)c1C
RP-LC retention time: 946 s

CCn1cc(-c2nc(C)c(C(=O)Nc3ccc(OC)cc3OC)s2)c2cccnc21
RP-LC retention time: 1050 s

CN1CCN(C(=O)c2ccc(-c3ccc(Br)cc3)o2)CC1
RP-LC retention time: 588 s

CCn1cc(CCNC(C)=O)c2cccnc21
RP-LC retention time: 561 s

Cc1ccccc1CNC(=O)C1CCCN(c2nnc(C)c3c(C)n(-c4ccccc4)nc23)C1 (configuration not stated)
RP-LC retention time: 727 s

CCOC(=O)COc1cc(-c2ccccc2)nc2ccc(NC(=O)C3CC3)cc12
RP-LC retention time: 738 s

COc1ccc(N2C(=O)C3N=NN(Cc4nc(-c5cccc(C)c5)no4)C3C2=O)cc1OC (configuration not stated)
RP-LC retention time: 911 s

Cc1ccc(C)c(N2CCN(C(=O)Cn3cccc3-c3nnc(C4CC4)o3)CC2)c1
RP-LC retention time: 1020 s

Cc1cc(N2CCN(c3ccccn3)CC2)n2ncc(-c3ccc(F)cc3)c2n1
RP-LC retention time: 732 s

O=C(Cn1nc2c(cc1=O)CCCCC2)NCCc1c[nH]c2ccc(F)cc12
RP-LC retention time: 794 s

Cc1cccc(NC(=O)C2CCCN(S(=O)(=O)N3CCC(C)CC3)C2)c1C (configuration not stated)
RP-LC retention time: 1030 s

COc1cc(-c2nc3ncccn3c2NC2CCCCC2)cc(OC)c1OC
RP-LC retention time: 724 s

Cc1ncc2c(n1)CCN(C(=O)c1cccc(Cl)c1)C2
RP-LC retention time: 653 s

Cc1ccc(CNC(=O)C2(C)Oc3cccnc3N(C)C2=O)cc1 (configuration not stated)
RP-LC retention time: 806 s

C[C@H](Cc1ccccc1)Nc1ncnc2c1ncn2[C@@H]1O[C@H](CO)[C@H](O)C1O (some centres not stated)
RP-LC retention time: 696 s

Cc1ccc(-c2noc(-c3ccc(N4CCN(C5CCCCC5)CC4)nc3)n2)cc1
RP-LC retention time: 848 s

COc1ccc(NC(=O)c2noc3c2CC(C)CC3)cc1OC (configuration not stated)
RP-LC retention time: 895 s

CCc1nn2c(CNC(=O)c3cccc(OC)c3)c(-c3ccccc3)nc2s1
RP-LC retention time: 885 s

CC(NC(=O)c1cccc2[nH]ccc12)C(=O)N1CCCc2ccccc21 (configuration not stated)
RP-LC retention time: 822 s

CCNC(=O)c1cc2cc(C)ccc2[nH]1
RP-LC retention time: 791 s

Cc1ccc(-c2nc3cccnc3n2CCN2CCN(C(=O)NC3CCCC3)CC2)cc1
RP-LC retention time: 627 s

COc1ccc(CCC(=O)Nc2cnn(-c3ncc(N(C)C)cn3)c2)cc1
RP-LC retention time: 737 s

Cc1nc(NC2CCCCC2)sc1C(=O)Nc1cccc(F)c1
RP-LC retention time: 872 s

Cc1cc(C)nc(SCC(=O)Nc2cccc3ccccc23)n1
RP-LC retention time: 779 s

Cn1cc(S(=O)(=O)N2CCC(C(=O)Nc3ccccn3)CC2)cc1C(=O)N1CCCC1
RP-LC retention time: 635 s

O=C(NCc1ccc2c(c1)OCO2)C1CCN(C(=O)c2ccccc2F)CC1
RP-LC retention time: 719 s

CC(C)NC(=O)C1CCCN(c2nc3ncn(CC(=O)Nc4ccc5c(c4)CCC5)c(=O)c3s2)C1 (configuration not stated)
RP-LC retention time: 709 s

Cc1nc2c(sc3nc(-c4ccccc4)ccc32)c(=O)n1CC(=O)Nc1ccc(F)cc1Cl
RP-LC retention time: 1090 s

COc1cccc(C(=O)Nc2nc(-c3ccc4c(c3)NC(=O)C(C)O4)c(C)s2)c1 (configuration not stated)
RP-LC retention time: 964 s

CC(C)(NC(=O)C1CCC1)c1nc2c(c(C(N)=O)n1)OCCO2
RP-LC retention time: 586 s

O=C(c1cc(-c2ccncc2)n[nH]1)N1CCC(C(=O)N2CCN(c3ncccn3)CC2)CC1
RP-LC retention time: 575 s

CC1CN(c2ccc(Cl)cc2)c2nc3c(c(=O)n(C)c(=O)n3C)n2C1 (configuration not stated)
RP-LC retention time: 885 s

CNC(=O)c1ccc(-c2nc3cc(NS(=O)(=O)c4cccc(Cl)c4)ccc3n2C)cc1
RP-LC retention time: 653 s

CCNC(=O)c1nc(C(=O)NC(C)c2ccc(C)cc2)cs1 (configuration not stated)
RP-LC retention time: 843 s

CCCn1c(=O)c(C)nc2cc(-c3noc(Cc4ccc(OC)c(OC)c4)n3)ccc21
RP-LC retention time: 930 s

CCOc1ccccc1NC(=O)N1CCC2(CC1)NC(=O)c1ccccc1O2
RP-LC retention time: 810 s

C=CCN1C(=O)C(C)(C)COc2ccc(NC(=O)Oc3ccccc3)cc21
RP-LC retention time: 960 s

CC(=O)N1c2ccc(S(=O)(=O)N3CCCCC3)cc2CC1C(=O)NCCc1ccccc1 (configuration not stated)
RP-LC retention time: 868 s

CCC(=O)N1CCc2c(C(=O)N3CCN(c4cccc(OC)c4)CC3)cccc21
RP-LC retention time: 819 s

Cc1nc(CCNS(=O)(=O)c2ccc(Cl)c(C)c2)no1
RP-LC retention time: 812 s

NC(=O)COc1cc(-c2ccccc2)nc2ccc(NC(=O)C3CC3)cc12
RP-LC retention time: 610 s

CC(O)(CCc1ccccc1)CNC(=O)CN1C(=O)CCC1=O (configuration not stated)
RP-LC retention time: 631 s

— the METLIN SMRT retention time set (Domingo-Almenara et al. 2019)
